Test results published in patent US10227323B2, “Glucosylceramide synthase inhibitors for the treatment of diseases” (BIOMARIN PHARMACEUTICAL INC., priority 2013, dated 2019).

Molecular target: T1, GCS (Canis lupus familiaris, UniProt A0A8I3MXG6)
T1 sequence (A0A8I3MXG6 1-394): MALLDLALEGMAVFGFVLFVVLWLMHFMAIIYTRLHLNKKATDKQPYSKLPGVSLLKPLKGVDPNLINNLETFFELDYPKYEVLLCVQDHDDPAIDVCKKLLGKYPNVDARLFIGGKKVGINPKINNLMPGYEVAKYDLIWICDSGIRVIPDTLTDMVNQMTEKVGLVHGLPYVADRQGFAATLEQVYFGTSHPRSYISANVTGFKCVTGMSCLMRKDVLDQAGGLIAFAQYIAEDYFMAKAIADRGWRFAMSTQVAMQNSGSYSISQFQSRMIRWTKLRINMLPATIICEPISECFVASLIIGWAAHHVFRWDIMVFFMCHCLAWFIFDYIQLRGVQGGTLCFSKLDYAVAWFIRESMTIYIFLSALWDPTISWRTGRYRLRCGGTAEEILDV
Experiment: Assay 1: GCS Enzymatic Assay (MDCK cell lysate, C6-NBD-Ceramide, LC/MS)
Type: biochemical, canine
Details: Table 2; for % inhibition generated from Assay 1: data marked by *; for IC50: data without asterisk, read-out: IC50 (nM) generated from Assay 1
Method in brief: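 LC/MS/MS measurement of glucosylceramide and NBD-ceramide after a 1 h, 37 °C reaction with 100 μM UDP-glucose and 10 μM C6-NBD-ceramide gave IC50s or percent inhibition.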

Compound | % inhibition generated from Assay 1 | IC50
O=C(N[C@H](CN1CCCC1)[C@H](O)c1ccc2c(c1)OCCO2)C(F)(F)c1ccc(-c2ccc(F)cn2)cc1 [Compound 179, N-((1R,2R)-1-(2,3-dihydrobenzo[b][1,4]dioxin-6-yl)-1-hydroxy-3-(pyrrolidin-1-yl)propan-2-yl)-2,2-difluoro-2-(4-(5-fluoropyridin-2-yl)phenyl)acetamide] | A* (the compound had a % inhibition of a percent inhibition of greater than or equal to about 50%) | –
O=C(N[C@H](CN1CCCC1)[C@H](O)c1ccc2c(c1)OCCO2)C(F)(F)c1ccc(-c2ccc(F)cc2)s1 [Compound 180, N-((1R,2R)-1-(2,3-dihydrobenzo[b][1,4]dioxin-6-yl)-1-hydroxy-3-(pyrrolidin-1-yl)propan-2-yl)-2,2-difluoro-2-(5-(4-fluorophenyl)thiophen-2-yl)acetamide] | A* (the compound had a % inhibition of a percent inhibition of greater than or equal to about 50%) | –
O=C(N[C@H](CN1CCCC1)[C@H](O)c1ccc2c(c1)OCCO2)/C(=N/O)c1ccc(-c2ccc(F)cc2)s1 [Compound 181, (Z)-N-((1R,2R)-1-(2,3-dihydrobenzo[b][1,4]dioxin-6-yl)-1-hydroxy-3-(pyrrolidin-1-yl)propan-2-yl)-2-(5-(4-fluorophenyl)thiophen-2-yl)-2-(hydroxyimino)acetamide] | – | < 50 nM
O=C(N[C@H](CN1CCCC1)[C@H](O)c1ccc(OC2CC2)c(Cl)c1)C(F)(F)c1ccc(-c2ccccn2)cc1 [Compound 182, N-((1R,2R)-1-(3-chloro-4-cyclopropoxyphenyl)-1-hydroxy-3-(pyrrolidin-1-yl)propan-2-yl)-2,2-difluoro-2-(4-(pyridin-2-yl)phenyl)acetamide] | – | < 50 nM
O=C(N[C@H](CN1CCCC1)[C@H](O)c1cc(F)c2c(c1)OCCO2)C(F)(F)c1ccc(-c2ccc(F)cn2)cc1 [Compound 183, 2,2-difluoro-N-((1R,2R)-1-(8-fluoro-2,3-dihydrobenzo[b][1,4]dioxin-6-yl)-1-hydroxy-3-(pyrrolidin-1-yl)propan-2-yl)-2-(4-(5-fluoropyridin-2-yl)phenyl)acetamide] | – | < 50 nM
O=C(N[C@H](CN1CCCC1)[C@H](O)c1ccc(OC2CC2)c(Cl)c1)/C(=N/O)c1ccc(-c2ccc(F)cn2)cc1 [Compound 184, (E)-N-((1R,2R)-1-(3-chloro-4-cyclopropoxyphenyl)-1-hydroxy-3-(pyrrolidin-1-yl)propan-2-yl)-2-(4-(5-fluoropyridin-2-yl)phenyl)-2-(hydroxyimino)acetamide] | – | < 50 nM
O=C(N[C@H](CN1CCCC1)[C@H](O)c1cnc2c(c1)OCCO2)C(F)(F)c1cc2cc(Cl)ccc2o1 [Compound 185, 2-(5-chlorobenzofuran-2-yl)-N-((1R,2R)-1-(2,3-dihydro-[1,4]dioxino[2,3-b]pyridin-7-yl)-1-hydroxy-3-(pyrrolidin-1-yl)propan-2-yl)-2,2-difluoroacetamide] | B* (the compound had a % inhibition of greater than or equal to about 3% but less than about 50%) | –
O=C(N[C@H](CN1CCCC1)[C@H](O)c1ccc2c(c1)OCCO2)C(F)(F)c1ccc(-c2ccccn2)cc1 [Compound 186, N-((1R,2R)-1-(2,3-dihydrobenzo[b][1,4]dioxin-6-yl)-1-hydroxy-3-(pyrrolidin-1-yl)propan-2-yl)-2,2-difluoro-2-(4-(pyridin-2-yl)phenyl)acetamide] | A* (the compound had a % inhibition of a percent inhibition of greater than or equal to about 50%) | –
O=C(N[C@H](CN1CCCC1)[C@H](O)c1cc(F)c2c(c1)OCCO2)C(F)(F)c1ccc(-c2ccccn2)cc1 [Compound 187, 2,2-difluoro-N-((1R,2R)-1-(8-fluoro-2,3-dihydrobenzo[b][1,4]dioxin-6-yl)-1-hydroxy-3-(pyrrolidin-1-yl)propan-2-yl)-2-(4-(pyridin-2-yl)phenyl)acetamide] | – | < 50 nM
O=C(N[C@H](CN1CCC1)[C@H](O)c1cc(F)c2c(c1)OCCO2)C(=O)c1ccc2cc(Cl)ccc2c1 [Compound 188, N-((1R,2R)-3-(azetidin-1-yl)-1-(8-fluoro-2,3-dihydrobenzo[b][1,4]dioxin-6-yl)-1-hydroxypropan-2-yl)-2-(6-chloronaphthalen-2-yl)-2-oxoacetamide] | A* (the compound had a % inhibition of a percent inhibition of greater than or equal to about 50%) | –
O=C(N[C@H](CN1CCCC1)[C@H](O)c1ccc2c(c1)OCCO2)C(=O)c1ccc(-c2ccc(F)cn2)cc1 [Compound 189, N-((1R,2R)-1-(2,3-dihydrobenzo[b][1,4]dioxin-6-yl)-1-hydroxy-3-(pyrrolidin-1-yl)propan-2-yl)-2-(4-(5-fluoropyridin-2-yl)phenyl)-2-oxoacetamide] | A* (the compound had a % inhibition of a percent inhibition of greater than or equal to about 50%) | –
O=C(N[C@H](CN1CCCC1)[C@H](O)c1ccc2c(c1)OCCO2)/C(=N/O)c1ccc(-c2ccc(F)cn2)cc1 [Compound 190, (E)-N-((1R,2R)-1-(2,3-dihydrobenzo[b][1,4]dioxin-6-yl)-1-hydroxy-3-(pyrrolidin-1-yl)propan-2-yl)-2-(4-(5-fluoropyridin-2-yl)phenyl)-2-(hydroxyimino)acetamide] | A* (the compound had a % inhibition of a percent inhibition of greater than or equal to about 50%) | –
O=C(N[C@H](CN1CCC1)[C@H](O)c1cc(F)c2c(c1)OCCO2)/C(=N/O)c1ccc2cc(Cl)ccc2c1 [Compound 191, (E)-N-((1R,2R)-3-(azetidin-1-yl)-1-(8-fluoro-2,3-dihydrobenzo[b][1,4]dioxin-6-yl)-1-hydroxypropan-2-yl)-2-(6-chloronaphthalen-2-yl)-2-(hydroxyimino)acetamide] | – | < 50 nM
CC(C)(O)COc1ccc([C@@H](O)[C@@H](CN2CCCC2)NC(=O)C(F)(F)C2Cc3ccc(Cl)cc3C2)cc1Cl (stereo partly drawn) [Compound 192, 2-(5-chloro-2,3-dihydro-1H-inden-2-yl)-N-((1R,2R)-1-(3-chloro-4-(2-hydroxy-2-methylpropoxy)phenyl)-1-hydroxy-3-(pyrrolidin-1-yl)propan-2-yl)-2,2-difluoroacetamide] | A* (the compound had a % inhibition of a percent inhibition of greater than or equal to about 50%) | –
CC(C)(O)COc1ccc([C@@H](O)[C@@H](CN2CCCC2)NC(=O)C(=O)c2ccc(-c3ccc(F)cc3)cc2)cc1Cl [Compound 194, N-((1R,2R)-1-(3-chloro-4-(2-hydroxy-2-methylpropoxy)phenyl)-1-hydroxy-3-(pyrrolidin-1-yl)propan-2-yl)-2-(4′-fluoro-[1,1′-biphenyl]-4-yl)-2-oxoacetamide] | – | < 50 nM
O=C(N[C@H](CN1CCCC1)[C@H](O)c1ccc2c(c1)OCCO2)C(=O)c1ccc(-c2ccccn2)cc1 [Compound 195, N-((1R,2R)-1-(2,3-dihydrobenzo[b][1,4]dioxin-6-yl)-1-hydroxy-3-(pyrrolidin-1-yl)propan-2-yl)-2-oxo-2-(4-(pyridin-2-yl)phenyl)acetamide] | A* (the compound had a % inhibition of a percent inhibition of greater than or equal to about 50%) | –
O=C(N[C@H](CN1CCCC1)[C@H](O)c1cc(F)c2c(c1)OCCO2)C(F)(F)c1cn2ccccc2n1 [Compound 196, 2,2-difluoro-N-((1R,2R)-1-(8-fluoro-2,3-dihydrobenzo[b][1,4]dioxin-6-yl)-1-hydroxy-3-(pyrrolidin-1-yl)propan-2-yl)-2-(imidazo[1,2-a]pyridin-2-yl)acetamide] | B* (the compound had a % inhibition of greater than or equal to about 3% but less than about 50%) | –
O=C(N[C@H](CN1CCCC1)[C@H](O)c1ccc2c(c1)OCCO2)C(=O)c1cccc(Oc2ccc(F)cc2)c1 [Compound 197, N-((1R,2R)-1-(2,3-dihydrobenzo[b][1,4]dioxin-6-yl)-1-hydroxy-3-(pyrrolidin-1-yl)propan-2-yl)-2-(3-(4-fluorophenoxy)phenyl)-2-oxoacetamide] | – | < 50 nM
CN1CCCc2cc(CCC(F)(F)C(=O)N[C@H](CN3CCCC3)[C@H](O)c3ccc4c(c3)OCCO4)ccc21 [Compound 198, N-((1R,2R)-1-(2,3-dihydrobenzo[b][1,4]dioxin-6-yl)-1-hydroxy-3-(pyrrolidin-1-yl)propan-2-yl)-2,2-difluoro-4-(1-methyl-1,2,3,4-tetrahydroquinolin-6-yl)butanamide] | A* (the compound had a % inhibition of a percent inhibition of greater than or equal to about 50%) | –
O=C(N[C@H](CN1CCCC1)[C@H](O)c1ccc(OC2CC2)c(Cl)c1)C(F)(F)c1cn2ccccc2n1 [Compound 199, N-((1R,2R)-1-(3-chloro-4-cyclopropoxyphenyl)-1-hydroxy-3-(pyrrolidin-1-yl)propan-2-yl)-2,2-difluoro-2-(imidazo[1,2-a]pyridin-2-yl)acetamide] | B* (the compound had a % inhibition of greater than or equal to about 3% but less than about 50%) | –
O=C(N[C@H](CN1CCCC1)[C@H](O)c1cc(F)c2c(c1)OCCO2)C(=O)c1ccc(N2CCCCC2)cc1 [Compound 200, N-((2R)-1-(8-fluoro-2,3-dihydrobenzo[b][1,4]dioxin-6-yl)-1-hydroxy-3-(pyrrolidin-1-yl)propan-2-yl)-2-oxo-2-(4-(piperidin-1-yl)phenyl)acetamide] | – | < 50 nM
